This note sets out measurements from US20240336559A1, “ANTI-FUNGALS COMPOUNDS TARGETING THE SYNTHESIS OF FUNGAL SPHINGOLIPIDS” (The Research Foundation for the State University of New York, priority 2021, published 2024).

SMILES strings stand for the structures. ≈ marks a conversion by molar mass, not a printed value.

Common to all, as to format: cell-based
The subject of one assay is C. neoformans. As to the kind of experiment: Antifungal activity assay (MIC80), C. neoformans. To be noted: Cryptococcus neoformans; lowest concentration inhibiting 80% of growth; YNB pH 7.0 HEPES, 37° C., 5% CO2, 24 to 72 h; read-out: MIC80 C. neoformans. Here is the method: (§1) MICs were determined following the methods of the Clinical and Laboratory Standards Institutes (CLSI) with modifications. Yeast nitrogen base (YNB) medium without amino acid (pH 7.0, 2% glucose) buffered with (4-(2-hydroxyethyl)-1-piperazineethanesulfonic acid) (HEPES) was used for MIC studies in C. neoformans. YNB medium without ammonium sulfate, without amino acid and 1% asparagine (pH 7.0, 2% glucose) was used for MIC studies in Candida strains. RPMI medium (pH 7.0, 2% glucose) was used for MIC studies in A. fumigatus. […] The compounds were serially diluted from 32 to 0.03 μg/mL, in a 96-well plate. The inoculum was prepared as described in the CLSI protocol M27A3 guidelines. The plates were incubated at 37° C. with 5% CO2 for 24 to 72 h and the optical density was measure at 450 nm. The MICs were determined as the lowest concentration of the compound that inhibited 80% of growth compared to the control.
MICs was determined following the methods of the Clinical and Laboratory Standards Institutes (CLSI) with modifications. Yeast Nitrogen Base (YNB) medium (pH 7.0, 0.2% glucose) buffered with HEPES was used for MIC studies. […] The compound was serially diluted from 16 to 0.03 μg/ml, in a 96-well plate. The inoculum was prepared as described in the CLSI protocol M27A3 guidelines. The plates were incubated at 37° C. with 5% CO2 for 24 to 72 h and the optical density was measure at 450 nm. The MICs was determined as the lowest concentration of the compound that inhibited 80% of growth compared to the control.

Assay [1] has as its system C. neoformans, C. albicans, A. fumigatus. As to the kind of experiment: Broad spectrum in vitro antifungal activity. The note with it: in words. The protocol: as §1
The subject of another assay is C. albicans. As to the kind of experiment: Antifungal activity assay (MIC80), C. albicans. The note with it: Candida albicans; lowest concentration inhibiting 80% of growth; YNB pH 7.0, 37° C., 5% CO2, 24 to 72 h. The protocol:
as §1

In a further assay the test system is A. fumigatus. The assay can be described thus: Antifungal activity assay (MIC80), A. fumigatus. The note with it: Aspergillus fumigatus; lowest concentration inhibiting 80% of growth; RPMI pH 7.0, 37° C., 5% CO2, 24 to 72 h. Here is the method: as §1

With `C#Cc1ccc(/C=N/NC(=O)c2ccc(Br)cc2Br)c(O)c1` [SB-AF-08-27, 2,4-Dibromo-N′-(4-ethynyl-2-hydroxybenzylidene)benzohydrazide], the MIC80 in the assay with C. neoformans is 0.03 µg/mL (≈ 0.0711 µM); against C. albicans, 0.12 µg/mL (≈ 0.284 µM); with A. fumigatus, 0.5 µg/mL (≈ 1.18 µM). The “in vitro broad-spectrum antifungal activity” value in assay [1] is on record as “excellent in vitro broad-spectrum activity”.
